In series [1] the test system is hyperlipoidemia model of Goldenhamsters (blood plasma TC, HDL-C, LDL-C). Put plainly: Pharmacological test group 2: effects on blood lipid levels of Goldenhamsters in hyperlipoidemia model. Format: in vivo. The source says:
(§1) Animals: 120 male Goldenhamsters, aged 8 weeks, body weight 80-100 g, provided by Vital River Laboratories, Beijing.
Kits: The kits for total cholesterol (TC) and high density lipoprotein cholesterol (HDL-C) were provided by SYSMEX, and the kits for low density lipoprotein cholesterol (LDL-C) were provided by Shanghai Kehua Bio-engineering Co., Ltd.
(§2) Apparatus: SYSMEX Automatic Biochemistry Analyzer, Bechman centrifuge, Setoris balance.
(§3) The animals were acclimatized and fed for 1 week, ad lib, light cycle was 10 h/14 h, and then feeds with high lipid content were fed to the animals (formulation: 0.3% cholesterol, 20% palm oil, and 79.7% basic feeds). The animals were fed for 2 weeks, and were fasted at 4:00 pm on the 14th day (fasted for 16 h). On the 15th day, the animals were anaesthetized with ethyl ether, weighted, and then 0.5 ml blood was collected from vena orbitalis posterior. The blood was anticoagulated with heparin, and was centrifugated at 5000 rpm for 10 min. The blood plasma was taken, and the levels of TC, HDL-C, and LDL-C in blood plasma were determined using automatic biochemistry analyzer.
During the administration, feeds with high lipid content were continuously fed to the animals. The animals were fed for 1 week, and were fasted at 4:00 pm on the 7th day. On the 8th day, the animals were anaesthetized with ethyl ether, weighted, and then 0.5 ml blood was collected from vena orbitalis posterior. The blood was anticoagulated with heparin, and was centrifugated at 5000 rpm for 10 min. The blood plasma was taken, and the levels of TC, HDL-C, and LDL-C in blood plasma were determined using automatic biochemistry analyzer.
(§4) The results were represented by x±s, and t test was employed for comparing the results obtained before and after administration.

The test system of series [2] is hyperlipoidemia model of Goldenhamsters (blood plasma TC, TG, HDL-C, LDL-C). The series can be described thus: Pharmacological test group 1: effects on blood lipid levels of Goldenhamsters in a hyperlipoidemia model. In kind it is in vivo. The text has this:
Animals: 134 male Goldenhamsters, aged 8 weeks, body weight 80-100 g, provided by Vital River Laboratories, Beijing. […] Kits: The kits for total cholesterol (TC), triglyceride (TG), and high density lipoprotein cholesterol (HDL-C) were provided by SYSMEX, and the kits for low density lipoprotein cholesterol (LDL-C) were provided by Shanghai Kehua Bio-engineering Co., Ltd. Apparatus: SYSMEX Automatic Biochemistry Analyzer, Bechman centrifuge, Setoris balance. The animals were acclimatized and fed for 1 week, ad lib, light cycle was 10 h/14 h, and then feeds with high lipid content were fed to the animals (formulation: 0.3% cholesterol, 20% palm oil, and 79.7% basic feeds). The animals were fed for 10 days, and were fasted at 4:00 pm on the 10th day (fasted for 16 h). On the 11th day, the animals were anaesthetized with ethyl ether, weighted, and then 0.5 ml blood was collected from vena orbitalis posterior. The blood was anticoagulated with heparin, and was centrifugated at 5000 rpm for 10 min. The blood plasma was taken, and the levels of TC, TG, HDL-C, and LDL-C in blood plasma were determined using automatic biochemistry analyzer. The animals were acclimatized and fed for 1 week, ad lib, light cycle was 10 h/14 h, and then feeds with high lipid content were fed to the animals (formulation: 0.3% cholesterol, 20% palm oil, and 79.7% basic feeds). The animals were fed for 2 weeks, and were fasted at 4:00 pm on the […] (fasted for 16 h). On the 22nd day, the animals were anaesthetized with ethyl ether, weighted, and then 0.5 ml blood was collected from vena orbitalis posterior. The blood was anticoagulated with heparin, and was centrifugated at 5000 rpm for 10 min. The blood plasma was taken, and the levels of TC, TG, HDL-C, and LDL-C in blood plasma were determined using automatic biochemistry analyzer. […] During the administration, feeds with high lipid content were continuously fed to the animals. The animals were fed for 1 week, and were fasted at 4:00 pm on the 7th day. On the 8th day, the animals were anaesthetized with ethyl ether, weighted, and then 0.5 ml blood was collected from vena orbitalis posterior. The blood was anticoagulated with heparin, and was centrifugated at 5000 rpm for 10 min. The blood plasma was taken, and the levels of TC, TG, HDL-C, and LDL-C in blood plasma were determined using automatic biochemistry analyzer. The results were represented by x±s, and t test was employed for comparing the results obtained before and after administration.

Series [3] can be described thus: Solubility in water (remark on the test drugs). Format: physicochemical. The conditions noted are these: formulated with 20% solutol.
Series [4] deals with hyperlipoidemia model of Goldenhamsters (blood plasma TC, TG, HDL-C, LDL-C). The series can be described thus: Pharmacodynamic test group 3: effects on blood lipid levels of Goldenhamsters in a hyperlipoidemia model. Format: in vivo. The conditions noted are these: for HDL-C, after administration / LDL-C, after administration / TC, after administration / TG, after administration: 40 mg/kg intragastric, 1 week, high-lipid feed continued, asterisks = P vs before administration; for HDL-C, after administration / LDL-C, after administration / TC, after administration / TG, after administration / HDL-C, before administration / LDL-C, before administration / TC, before administration / TG, before administration: blood plasma, x±s; for therapeutic effect compared with fenofibrate (conclusion from table 4): fenofibrate 40 mg/kg; for HDL-C, before administration / LDL-C, before administration / TC, before administration / TG, before administration: baseline of the group before administration, high-lipid feed 2 weeks, 6 animals.
Description: as §1
Kits: The kits for total cholesterol (TC), triglyceride (TG), and high density lipoprotein cholesterol (HDL-C) were provided by SYSMEX, and the kits for low density lipoprotein cholesterol (LDL-C) were provided by Shanghai Kehua Bio-engineering Co., Ltd.
as §2
as §3, with “pm of” for “pm on”, “h). At” for “h). On”, “TC, TG,” for “TC,”
During the administration, feeds with high lipid content were continuously fed to the animals. The animals were fed for 1 week, and were fasted at 4:00 pm of the 7th day. At the 8th day, the animals were anaesthetized with ethyl ether, weighted, and then 0.5 ml blood was collected from vena orbitalis posterior. The blood was anticoagulated with heparin, and was centrifugated at 5000 rpm for 10 min. The blood plasma was taken, and the levels of TC, TG, HDL-C, and LDL-C in blood plasma were determined using automatic biochemistry analyzer.
as §4

The mark [5] stands for this setting: 40 mg/kg intragastric, 1 week, high-lipid feed continued, blood plasma, x±s, asterisks = P vs before administration.
[6] abbreviates: 40 mg/kg, t test after vs before administration.
[7] abbreviates: baseline of the group before administration, high-lipid feed 2 weeks, blood plasma, x±s, 6 animals.

We go through four compounds from patent US9487470B2, “4-((substituted phenyl) difluoromethyl) phenoxy carboxylic acid derivative, and preparation method and uses thereof” (Zhejiang Hisun Pharmaceutical Co., Ltd., priority 2012, dated 2016).

`CC(C)OC(=O)C(C)(C)Oc1ccc(C(F)(F)c2ccc(Cl)cc2)cc1Cl` [HS003-020, Isopropyl 2-(4-((4-chlorophenyl)difluoromethyl)-2-chlorophenoxy)-2-methylpropionate]: the “blood lipid-regulating effects (conclusion from table 3)” value in series [1] (40 mg/kg) is “excellent blood lipid-regulating effects”. Further, in series [1] (setting [5]), the “HDL-C, after administration” value was found to be 1.84 ± 0.14; the “LDL-C, after administration” value is listed as 1.42 ± 0.39; the “TC, after administration” value worked out at 10.34 ± 1.17. For the same compound, in series [1] (40 mg/kg, fenofibrate 40 mg/kg), the “therapeutic effect compared with fenofibrate (conclusion from table 3)” value was “outstanding therapeutic effects, and are superior to fenofibrate”. In series [1] (setting [6]), the “effect on HDL-C, in comparison with the results before administration (in words)” value (shortened to “effect on HDL-C, in comparison”) was “significantly increases”; the “effect on LDL-C, in comparison with the results before administration (in words)” value (“effect on LDL-C, in comparison” below) is reported as “significantly decreases”; the “effect on TC, in comparison with the results before administration (in words)” value (“effect on TC, in comparison” below) was “significantly decreases”. For the same compound, in series [1] (setting [7]), the “HDL-C, before administration” value was determined as 1.45 ± 0.2; the “LDL-C, before administration” value amounted to 3.94 ± 1.41; the “TC, before administration” value is on record as 14.06 ± 2.17. Moreover, the “regulating effects on the levels of blood lipid (conclusion from table 2)” value in series [2] (40 mg/kg) is “tend to the effects of significantly decreasing TG, TC, and LDL-C”. Also, in series [2] (setting [5]), the “HDL-C, after administration” value turned out to be 4.18 ± 0.07; the “LDL-C, after administration” value amounted to 1.0 ± 0.35; the “TC, after administration” value was 8.88 ± 0.44; the “TG, after administration” value worked out at 1.19 ± 0.49. Moreover, in series [2] (setting [6]), the “effect on HDL-C, in comparison” value is on record as “increase”; the “effect on LDL-C, in comparison” value is recorded as “significantly decreases”; the “effect on TG, in comparison with the results before administration (in words)” value (shortened to “effect on TG, in comparison”) is on record as “significantly decreases”. Moreover, the solubility in water result in series [3] is given as “insoluble”.

`CCOC(=O)C(CC)Oc1ccc(C(F)(F)c2ccc(Cl)cc2)cc1` (stereo not drawn) [HS003-023, Ethyl 2-(4-((4-chlorophenyl)difluoromethyl)phenoxy)butyrate]: in series [4] (40 mg/kg), the “blood lipid-regulating effects (conclusion from table 4)” value is listed as “excellent blood lipid-regulating effects”; the “therapeutic effect compared with fenofibrate (conclusion from table 4)” value was “outstanding therapeutic effects, and are superior to fenofibrate”. Further, in series [4], the “HDL-C, after administration” value came out at 2.88 ± 0.22; the “LDL-C, after administration” value came to 2.26 ± 0.38; the “TC, after administration” value turned out to be 8.49 ± 1.08; the “TG, after administration” value amounted to 2.40 ± 0.35. Besides, in series [4], the “HDL-C, before administration” value is 2.76 ± 0.28; the “LDL-C, before administration” value is reported as 2.86 ± 0.63; the “TC, before administration” value was determined as 12.39 ± 2.38; the “TG, before administration” value stood at 3.91 ± 1.07. In addition, in series [4] (setting [6]), the “effect on LDL-C, in comparison” value is “significantly decreases”; the “effect on TC, in comparison” value was “significantly decreases”; the “effect on TG, in comparison” value is given as “significantly decreases”. The solubility in water entry in series [3] was “insoluble”.

On to `COC(=O)C(C)Oc1ccc(C(F)(F)c2ccc(Cl)cc2)cc1` (stereo not drawn) [HS003-024, Methyl 2-(4-((4-chlorophenyl)difluoromethyl)phenoxy) propionate], for which, in series [4] (40 mg/kg), the “blood lipid-regulating effects (conclusion from table 4)” value was “excellent blood lipid-regulating effects”; the “therapeutic effect compared with fenofibrate (conclusion from table 4)” value is “outstanding therapeutic effects, and are superior to fenofibrate”. In series [4], the “HDL-C, after administration” value was 2.94 ± 0.41; the “LDL-C, after administration” value worked out at 1.64 ± 0.27; the “TC, after administration” value is 7.64 ± 0.46; the “TG, after administration” value worked out at 1.92 ± 0.38. Moreover, in series [4], the “HDL-C, before administration” value amounted to 2.76 ± 0.42; the “LDL-C, before administration” value is listed as 2.97 ± 0.98; the “TC, before administration” value came to 12.47 ± 1.85; the “TG, before administration” value amounted to 3.96 ± 1.15. In addition, in series [4] (setting [6]), the “effect on LDL-C, in comparison” value is “significantly decreases”; the “effect on TC, in comparison” value is “significantly decreases”; the “effect on TG, in comparison” value is “significantly decreases”. Besides, the solubility in water entry in series [3] was “insoluble”.

Consider `COC(=O)C(CCO)Oc1ccc(C(F)(F)c2ccc(Cl)cc2)cc1` (stereo not drawn) [HS003-031, methyl 2-(4-((4-chlorophenyl)difluoromethyl)phenoxy)-4-hydroxy-butyrate], for which the “blood lipid-regulating effects (conclusion from table 4)” value in series [4] (40 mg/kg) is “excellent blood lipid-regulating effects”. In series [4], the “LDL-C, after administration” value amounted to 1.94 ± 0.42; the “TC, after administration” value turned out to be 11.44 ± 1.05; the “TG, after administration” value turned out to be 1.89 ± 0.38; the “HDL-C, before administration” value is 2.82 ± 0.34. For the same compound, in series [4], the “LDL-C, before administration” value amounted to 3.2 ± 0.83; the “TC, before administration” value is given as 12.61 ± 1.66; the “TG, before administration” value was found to be 4.02 ± 1.33. In series [4] (setting [6]), the “effect on HDL-C, in comparison” value is given as “significantly increases”; the “effect on LDL-C, in comparison” value was “significantly decreases”; the “effect on TG, in comparison” value is recorded as “significantly decreases”. For the same compound, in series [3], the solubility in water result is “insoluble”.
